The target in assay [1] is T1, purified, full length human ERβ (Homo sapiens, UniProt Q92731).
T1 construct: purified, full length human ERα and ERβ
Put plainly: Relative binding affinity (RBA) radiometric competitive binding assay, ERβ. The conditions noted are these: for β/α (ERβ/ERα selectivity): ratio of RBA ERβ to RBA ERα; for RBA ERβ: relative binding affinity, E2 (estradiol) is 100%, tritiated estradiol tracer; for selectivity of binding to ERβ vs ERα: text statement of the β/α ratio; for binding affinity for ERβ (in words): compared with the other 7-substituted indazoles.

Assay [2] deals with T2, purified, full length human ERα (Homo sapiens, UniProt P03372).
T2 construct: purified, full length human ERα and ERβ
T2 sequence (P03372 1-595): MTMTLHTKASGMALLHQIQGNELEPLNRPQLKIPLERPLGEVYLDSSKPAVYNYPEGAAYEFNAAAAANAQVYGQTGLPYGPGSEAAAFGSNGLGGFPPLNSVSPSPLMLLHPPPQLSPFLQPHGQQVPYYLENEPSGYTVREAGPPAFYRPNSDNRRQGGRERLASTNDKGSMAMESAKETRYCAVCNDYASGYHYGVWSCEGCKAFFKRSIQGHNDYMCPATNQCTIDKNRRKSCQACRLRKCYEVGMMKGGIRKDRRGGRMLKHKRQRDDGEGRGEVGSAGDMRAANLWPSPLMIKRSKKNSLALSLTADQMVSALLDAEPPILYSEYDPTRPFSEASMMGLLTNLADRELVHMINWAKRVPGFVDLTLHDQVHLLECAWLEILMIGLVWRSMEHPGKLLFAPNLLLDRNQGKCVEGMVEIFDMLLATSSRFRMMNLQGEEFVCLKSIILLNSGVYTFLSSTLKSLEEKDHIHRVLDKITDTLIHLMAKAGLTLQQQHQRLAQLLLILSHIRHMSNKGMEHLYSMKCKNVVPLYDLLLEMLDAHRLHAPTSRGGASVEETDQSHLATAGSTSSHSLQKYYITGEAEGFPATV
The assay is described as follows: Relative binding affinity (RBA) radiometric competitive binding assay, ERα. The conditions noted are these: for RBA ERα: relative binding affinity, E2 (estradiol) is 100%, tritiated estradiol tracer; for binding affinity for ERα (in words): compared with the other 7-substituted indazoles.

The next assay relates to Primary OPCs. The assay is described as follows: Primary OPC culture: MBP+ OL differentiation and total cell count (DAPI). Format: cell-based, mouse. The conditions noted are these: for number of MBP+ OLs with increased percentage of branched OLs, compared to vehicle-treated cells / total number of cells (DAPI): 10 nM. The protocol: Primary OPC Cultures: Primary OPCs, isolated from postnatal day P1 C57BL/6 male and female mouse cortices as described previously, are treated with 10 nM ligands in differentiating medium for […] (Tiwari-Woodruff et al., 2001; Tiwari-Woodruff et al., 2006). Primary OPC are cultured into 8-well chamber slides (three wells per condition, 2.5×10^5 cells/well) for three days to attach and five days in differentiating media (consisting of DMEM-F12 with triiodothyronine- and thyroxine-containing Sato as well as penicillin, streptomycin, insulin, N-acetyl-L-cysteine, forskolin, ciliary neurotrophic factor, neurotrophin-3, and platelet-derived growth factor […] (Tiwari-Woodruff et al., 2001)). A positive control (IndC1), a negative control (Vehicle consisting of the media+EtOH mixture used to dissolve IndCl), and a normal control (differentiating media alone) are used for comparison. At the end of the treatment period, cells are fixed, stained by immunocytochemistry (primary antibody polyclonal chicken myelin basic protein (MBP, Millipore AB9348), and co-stained with nuclear stain-DAPI), and imaged with an Olympus BX61 confocal microscope (Olympus America Inc., Center Valley, PA) at 10× magnification (3 images per well). Cells are counted using the ImageJ multipoint tool, and counts are then divided by the image area (mm^2). Average cell density for each condition is then divided by the normal condition cell density. Analysis of OL differentiation consists of counting the number of MBP+ cells and process extensions that are longer than the respective cell-body diameter and tracking the number of highly branched MBP+ cells (with three or more processes) (Monnerie et al., 2017). Statistics are performed using GraphPad Prism 6 Software (La Jolla, CA). One-way ANOVA with Tukey's posthoc test for multiple comparisons is used to generate p-values, and data are presented as mean±SEM (with α≤0.05).
FIG. 1A-1D show the effects of treatment with the 7-substituted indazole compounds on the expression of myelin basic protein in OLs (MBP^+-OLs, top two panels) as an indication of murine oligodendrocyte precursor cell (OPC) differentiation, as well as the count of the total cells as an indication of cell proliferation/survival (DAPI nucleus stain, bottom two panels). The cells were treated with the listed compounds at 10 nM (FIG. 1A, 1B) and at 1 nM (FIG. 1C, 1D).

The text below walks through data of patent US20260224532A1, “ESTROGEN RECEPTOR BETA LIGANDS FOR THE PREVENTION AND TREATMENT OF MULTIPLE SCLEROSIS (MS) AND OTHER DEMYELINATING, INFLAMMATORY AND NEURODEGENERATIVE DISEASES” (The Board of Trustees of the University of Illinois, priority 2023, published 2026).

Structures are written as SMILES.

T1 sequence (Q92731 whole entry): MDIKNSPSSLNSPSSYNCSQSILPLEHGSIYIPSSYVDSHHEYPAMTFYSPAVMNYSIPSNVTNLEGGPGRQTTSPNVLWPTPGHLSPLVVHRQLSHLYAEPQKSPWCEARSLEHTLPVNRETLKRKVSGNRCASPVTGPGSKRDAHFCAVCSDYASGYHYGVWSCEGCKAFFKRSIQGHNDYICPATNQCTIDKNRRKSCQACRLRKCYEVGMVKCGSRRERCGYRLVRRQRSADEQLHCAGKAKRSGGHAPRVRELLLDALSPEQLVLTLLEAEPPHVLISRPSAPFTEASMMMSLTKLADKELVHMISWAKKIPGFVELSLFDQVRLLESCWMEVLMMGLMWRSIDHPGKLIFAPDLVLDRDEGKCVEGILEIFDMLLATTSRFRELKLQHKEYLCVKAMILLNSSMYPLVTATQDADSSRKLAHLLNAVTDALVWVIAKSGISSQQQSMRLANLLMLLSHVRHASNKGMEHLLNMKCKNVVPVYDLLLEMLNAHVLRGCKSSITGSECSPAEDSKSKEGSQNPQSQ

For the compound `Cc1cc(O)cc2cn(-c3ccc(O)cc3)nc12` [Compound 10, 7-methyl-2-(4-hydroxyphenyl)-2H-indazol-5-ol], in assay [1], the “β/α (ERβ/ERα selectivity)” value came out at 144, the “RBA ERβ” value is reported as 2.59% and the “selectivity of binding to ERβ vs ERα” value amounted to 144 fold. In addition, the “RBA ERα” value in assay [2] is 0.018%.
The like results for `Oc1ccc(-n2cc3cc(O)cc(Cl)c3n2)cc1` [Compound 6, 7-chloro-2-(4-hydroxyphenyl)-2H-indazol-5-ol] were, in that order, 200, 19.6 ± 6.1%, 200 fold and 0.098%.
Take `Oc1ccc(-n2cc3cc(O)cc(F)c3n2)cc1` [Compound 8, 7-fluoro-2-(4-hydroxyphenyl)-2H-indazol-5-ol]: in assay [1], the “β/α (ERβ/ERα selectivity)” value was 87 and the “RBA ERβ” value was 22.4%. Besides, the “RBA ERα” value in assay [2] was 0.258%.
Regarding `Cc1cc(O)ccc1-n1nc2cc(F)c(O)cc2c1Cl` [Compound 18, 3-Chloro-6-fluoro-2-(4-hydroxy-2-methylphenyl)-2H-indazol-5-ol], in assay [1], the “β/α (ERβ/ERα selectivity)” value is 4.64 and the “RBA ERβ” value was found to be 2.53%. Besides, the “RBA ERα” value in assay [2] turned out to be 0.545%. The “MBP expression / number of MBP+ OLs, compared to vehicle-treated cells” value with Primary OPCs (1 nM) is reported as “significant increase”. Moreover, the “number of MBP+ OLs with increased percentage of branched OLs, compared to vehicle-treated cells” value with Primary OPCs was “significant increase”.
With `Oc1cc(Cl)c2nn(-c3ccc(O)c(F)c3)cc2c1` [Compound 13, 7-Chloro-2-(3-fluoro-4-hydroxyphenyl)-2H-indazol-5-ol], in assay [1], the “β/α (ERβ/ERα selectivity)” value stood at 469, the “RBA ERβ” value turned out to be 10.76% and the “selectivity of binding to ERβ vs ERα” value is reported as 469 fold. For the same compound, in assay [2], the “RBA ERα” value was determined as 0.023%.
For `Oc1ccc(-n2nc3cc(Cl)c(O)cc3c2Cl)cc1` [Compound 19, 3,6-dichloro-2-(4-hydroxyphenyl)-2H-indazol-5-ol], in assay [1], the “β/α (ERβ/ERα selectivity)” value was 15.49 and the “RBA ERβ” value stood at 0.852%. The “RBA ERα” value in assay [2] is listed as 0.055%.
Take `Oc1ccc(-n2nc3c(Cl)cc(O)cc3c2Cl)c(F)c1` [Compound 16, 3,7-dichloro-2-(2-fluoro-4-hydroxyphenyl)-2H-indazol-5-ol]: in assay [1], the “β/α (ERβ/ERα selectivity)” value came out at 6.74 and the “RBA ERβ” value was found to be 31.76%. Also, the “RBA ERα” value in assay [2] came to 4.71%.
In the case of `Cc1cc(O)ccc1-n1nc2c(O)cc(O)cc2c1Cl` [Compound 22, 3-chloro-2-(4-hydroxy-2-methylphenyl)-2H-indazole-5,7-diol], in assay [1], the “binding affinity for ERβ (in words)” value is recorded as “lower binding affinity”, the “β/α (ERβ/ERα selectivity)” value is 12 and the “RBA ERβ” value came to 0.006%. In assay [2], the “binding affinity for ERα (in words)” value was “lower binding affinity” and the “RBA ERα” value came to 0.0005%.
Take `Oc1ccc(-n2nc3c(Br)cc(O)cc3c2Cl)cc1` [Compound 3, 7-bromo-3-chloro-2-(4-hydroxyphenyl)-2H-indazol-5-ol]: in assay [1], the “β/α (ERβ/ERα selectivity)” value stood at 18. Besides, the “RBA ERα” value in assay [2] is recorded as 15.57%. Besides, the “total number of cells (DAPI)” value in the assay with Primary OPCs is “reduction”.
`Oc1ccc(-n2cc3cc(O)cc(Cl)c3n2)c(F)c1` [Compound 15, 7-chloro-2-(2-fluoro-4-hydroxyphenyl)-2H-indazol-5-ol]: in assay [1], the “β/α (ERβ/ERα selectivity)” value was found to be 185, the “RBA ERβ” value is on record as 9.63% and the “selectivity of binding to ERβ vs ERα” value stood at 185 fold. In assay [2], the “RBA ERα” value worked out at 0.052%.
For the compound `Oc1ccc(-n2nc3c(Br)cc(O)cc3c2Br)cc1` [Compound 4, 3,7-dibromo-2-(4-hydroxyphenyl)-2H-indazol-5-ol], the “β/α (ERβ/ERα selectivity)” value in assay [1] is listed as 7. Also, the “RBA ERα” value in assay [2] worked out at 21.29%.
For `Oc1ccc(-n2nc3c(O)cc(O)cc3c2Cl)cc1` [Compound 21, 3-chloro-2-(4-hydroxyphenyl)-2H-indazole-5,7-diol], in assay [1], the “binding affinity for ERβ (in words)” value was “lower binding affinity”, the “β/α (ERβ/ERα selectivity)” value was 51 and the “RBA ERβ” value was 0.051%. Also, in assay [2], the “binding affinity for ERα (in words)” value is listed as “lower binding affinity” and the “RBA ERα” value worked out at 0.001%.
As for `Oc1ccc(-n2nc3c(Br)cc(O)cc3c2F)cc1` [Compound 2, 7-bromo-3-fluoro-2-(4-hydroxyphenyl)-2H-indazol-5-ol], in assay [1], the “β/α (ERβ/ERα selectivity)” value turned out to be 70.1. Moreover, in assay [2], the “RBA ERα” value is reported as 2.27%. The “total number of cells (DAPI)” value with Primary OPCs is “reduction”.
For the compound `Oc1ccc(-n2nc3c(F)cc(O)cc3c2Cl)cc1` [Compound 9, 3-Chloro-7-fluoro-2-(4-hydroxyphenyl)-2H-indazol-5-ol], in assay [1], the “β/α (ERβ/ERα selectivity)” value came out at 37 and the “RBA ERβ” value amounted to 82.3%. Further, the “RBA ERα” value in assay [2] is given as 2.2%.
Taken in the same sequence, the figures for `Cc1cc(O)cc2c(Cl)n(-c3ccc(O)cc3)nc12` [Compound 11, 3-Chloro-7-methyl-2-(4-hydroxyphenyl)-2H-indazol-5-ol] were 17, 45.9% and 2.76%.
On to `Oc1ccc(-n2cc3cc(O)cc(Br)c3n2)cc1` [Compound 1, 7-bromo-2-(4-hydroxyphenyl)-2H-indazol-5-ol], for which, in assay [1], the “β/α (ERβ/ERα selectivity)” value turned out to be 131, the “RBA ERβ” value was found to be 32.01 ± 0.09% and the “selectivity of binding to ERβ vs ERα” value was 131 fold. The “RBA ERα” value in assay [2] came to 0.244%. Also, the “number of MBP+ OLs with increased percentage of branched OLs, compared to vehicle-treated cells” value in the assay on Primary OPCs is on record as “significant increase”.
Turning to `Cc1cc(O)ccc1-n1nc2cc(Cl)c(O)cc2c1Cl` [Compound 20, 3,6-dichloro-2-(4-hydroxy-2-methylphenyl)-2H-indazol-5-ol], in assay [1], the “β/α (ERβ/ERα selectivity)” value was 2.63 and the “RBA ERβ” value stood at 0.187%. For the same compound, in assay [2], the “RBA ERα” value came to 0.071%.
